Test results taken from patent US9382255B2, “Substituted pyrrolopyrimidinylamino-benzothiazolones as MKNK kinase inhibitors” (BAYER PHARMA AKTIENGESELLSCHAFT, priority 2012, dated 2016).

The molecules below were run against T1, human full-length MKNK1 (Homo sapiens, UniProt Q9BUB5, T385D) (assay: MKNK1 kinase high ATP assay (TR-FRET)). Conditions: high ATP (2 mM final), 15 min preincubation with enzyme, GST-MKNK1 (T344D).
T1 construct: GST (N); purchased Carna Biosciences 02-145; host or cells: insect cells (baculovirus expression system)
Type: biochemical
Experimental: MKNK1 Kinase High ATP Assay
MKNK1-inhibitory activity at high ATP of compounds of the present invention after their preincubation with MKNK1 was quantified employing the TR-FRET-based MKNK1 high ATP assay as described in the following paragraphs.
A recombinant fusion protein of Glutathione-S-Transferase (GST, N-terminally) and human full-length MKNK1 (amino acids 1-424 and T344D of accession number BAA 19885.1), expressed in insect cells using baculovirus expression system and purified via glutathione sepharose affinity chromatography, was purchased from Carna Biosciences (product no 02-145) and used as enzyme. As substrate for the kinase reaction the biotinylated peptide biotin-Ahx-IKKRKLTRRKSLKG (C-terminus in amide form) was used, which can be purchased e.g. from the company Biosyntan (Berlin-Buch, Germany).
For the assay 50 nL of a 100 fold concentrated solution of the test compound in DMSO was pipetted into a black low volume 384 well microtiter plate (Greiner Bio-One, Frickenhausen, Germany), 2 μL of a solution of MKNK1 in aqueous assay buffer [50 mM HEPES pH 7.5, 5 mM MgCL2, 1.0 mM dithiothreitol, 0.005% (v/v) Nonidet-P40 (Sigma)] was added and the mixture was incubated for 15 min at 22° C. to allow pre-binding of the test compounds to the enzyme before the start of the kinase reaction. Then the kinase reaction was started by the addition of 3 μL of a solution of adenosine-tri-phosphate (ATP, 3.3 mM=>final conc. in the 5 μL assay volume is 2 mM) and substrate (0.1 μM=>final conc. in the 5 μL assay volume is 0.06 μM) in assay buffer and the resulting mixture was incubated for a reaction time of 30 min at 22° C. The concentration of MKNK1 was adjusted depending of the activity of the enzyme lot and was chosen appropriate to have the assay in the linear range, typical concentrations were in the range of 0.003 μg/mL. The reaction was stopped by the addition of 5 μL of a solution of TR-FRET detection reagents (5 nM streptavidine-XL665 [Cisbio Bioassays, Codolet, France] and 1 nM anti-ribosomal protein S6 (pSer236)-antibody from Invitrogen [#44921G] and 1 nM LANCE EU-W1024 Labeled ProteinG [Perkin-Elmer, product no. AD0071]) in an aqueous EDTA-solution (100 mM EDTA, 0.1% (w/v) bovine serum albumin in 50 mM HEPES pH 7.5).
The resulting mixture was incubated for 1 h at 22° C. to allow the formation of complex between the phosphorylated biotinylated peptide and the detection reagents. Subsequently the amount of phosphorylated substrate was evaluated by measurement of the resonance energy transfer from the Eu-chelate to the streptavidine-XL. Therefore, the fluorescence emissions at 620 nm and 665 nm after excitation at 350 nm were measured in a TR-FRET reader, e.g. a Rubystar (BMG Labtechnologies, Offenburg, Germany) or a Viewlux (Perkin-Elmer). The ratio of the emissions at 665 nm and at […] was taken as the measure for the amount of phosphorylated substrate. The data were normalised (enzyme reaction without inhibitor=0% inhibition, all other assay components but no enzyme=100% inhibition).

T1 sequence (Q9BUB5 1-424 isoform Q9BUB5-2 T344D): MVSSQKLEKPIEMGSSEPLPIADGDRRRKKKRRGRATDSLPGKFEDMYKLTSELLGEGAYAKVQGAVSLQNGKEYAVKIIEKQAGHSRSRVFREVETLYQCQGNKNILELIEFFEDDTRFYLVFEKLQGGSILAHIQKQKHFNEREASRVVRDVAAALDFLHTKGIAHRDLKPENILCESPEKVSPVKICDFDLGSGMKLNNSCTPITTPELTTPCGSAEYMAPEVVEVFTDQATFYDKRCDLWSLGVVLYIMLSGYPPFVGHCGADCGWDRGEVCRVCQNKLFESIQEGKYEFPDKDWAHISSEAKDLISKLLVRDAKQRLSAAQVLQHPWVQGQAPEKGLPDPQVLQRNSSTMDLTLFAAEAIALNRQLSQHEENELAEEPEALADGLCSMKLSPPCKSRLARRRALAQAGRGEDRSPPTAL

Row | IC50 [µM] | Structure (SMILES)
1 | 0.024 | O=C(c1[nH]c2ncnc(Nc3ccc4[nH]c(=O)sc4c3)c2c1Br)N1CCCCC1 [Example 33, 6-{[5-Bromo-6-(piperidin-1-ylcarbonyl)-7H-pyrrolo[2,3-d]pyrimidin-4-yl]amino}-1,3-benzothiazol-2(3H)-one]
2 | 0.039 | C[C@@H]1COCCN1C(=O)c1cc2c(Nc3ccc4[nH]c(=O)sc4c3)ncnc2[nH]1 [Example 34]
3 | 0.047 | C[C@H]1COCCN1C(=O)c1cc2c(Nc3ccc4[nH]c(=O)sc4c3)ncnc2[nH]1 [Example 35]
4 | 0.014 | O=C(c1cc2c(Nc3ccc4[nH]c(=O)sc4c3)ncnc2[nH]1)N1CCCCC1 [Example 36, 6-{[6-(Piperidin-1-ylcarbonyl)-7H-pyrrolo[2,3-d]pyrimidin-4-yl]amino}-1,3-benzothiazol-2(3H)-one]
